Target: human HPK1 (MAP4K1) (Homo sapiens (Human), UniProt Q92918)
Assay: HPK1 IC50 Assay (TR-FRET biochemical kinase assay, STK S1 peptide substrate)
Settings: recombinant human HPK1 kinase domain 0.15 nM, 10 μM ATP, 1 μM STK S1 peptide; geometric mean
In short: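 Pre-activated recombinant kinase domain (insect cells; 0.15 nM) pre-incubated with compounds for 15 min, then 10 μM ATP and 1 μM STK S1 peptide added for 3 h at 25 °C in BES pH 7.0. Phosphorylation read by HTRF (665/620 nm). IC50 from four-parameter fits normalized to staurosporine/DMSO controls, geometric mean of repeats.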

Sequence of human HPK1 (MAP4K1) (Q92918 17-274): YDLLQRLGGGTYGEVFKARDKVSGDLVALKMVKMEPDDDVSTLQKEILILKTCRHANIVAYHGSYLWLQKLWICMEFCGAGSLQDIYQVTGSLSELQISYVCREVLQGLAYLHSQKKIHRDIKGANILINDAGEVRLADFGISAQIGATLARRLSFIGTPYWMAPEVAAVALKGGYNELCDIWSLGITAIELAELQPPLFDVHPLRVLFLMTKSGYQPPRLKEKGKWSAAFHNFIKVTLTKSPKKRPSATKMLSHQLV

Row | IC50 [nM] | Compound
1 | 0.1 | CC(=O)N1CCC2(CC1)C(=O)N([C@H]1C[C@@H](N3CC4CCC(C4)C3)C1)c1cc(-c3cc4ncn(C(C)C)c4c(Nc4cc(C)ncc4F)n3)ccc12 [Example 166]
2 | 0.3 | CO[C@H](C)C(=O)N1CCC2(CC1)C(=O)N([C@H]1C[C@@H](N3CCCCC3)C1)c1cc(-c3cc4ncn(C(C)C)c4c(Nc4ccncc4F)n3)ccc12 [Example 153]
3 | 0.1 | CC(C)n1cnc2cc(-c3ccc4c(c3)N([C@H]3C[C@@H](N5CC6CCC(C6)C5)C3)C(=O)C43CCN(C(=O)[C@@H](C)O)CC3)nc(Nc3ccncc3F)c21 [Example 126]
4 | 0.5 | CC(C)n1cnc2cc(-c3ccc4c(c3)N([C@H]3C[C@@H](N5CCCCC5)C3)C(=O)C43CCN(C(=O)C(C)(C)CF)CC3)nc(Nc3ccncc3F)c21 [Example 139]
5 | 2.6 | CCC(=O)N1CCC2(CC1)C(=O)N([C@H]1C[C@@H](N3CCCCC3)C1)c1cc(-c3cc4ncn(CC)c4c(Nc4ccncc4F)n3)ccc12 [Example 168]
6 | 4.5 | COC(C)(C)CN(C)[C@H]1C[C@@H](N2C(=O)C3(CCN(C(C)=O)CC3)c3ccc(-c4cc5ncn(C(C)C)c5c(Nc5ccncc5F)n4)cc32)C1 [Example 179]
7 | 0.08 | CC(C)n1cnc2cc(-c3ccc4c(c3)N([C@H]3C[C@@H](N5CCCCC5)C3)C(=O)C43CCN(C(=O)C4(C(C)C)COC4)CC3)nc(Nc3ccncc3F)c21 [Example 137]
8 | 0.07 | CC(C)n1cnc2cc(-c3ccc4c(c3)N([C@H]3C[C@@H](N5C[C@H]6CC[C@H]6C5)C3)C(=O)C43CCN(C(=O)[C@@H](C)O)CC3)nc(Nc3ccncc3F)c21 [Example 113]
9 | 0.8 | CC(=O)N1CCC2(CC1)C(=O)N([C@H]1C[C@@H](N3CCC4(CC4)C3)C1)c1cc(-c3cc4ncn(C(C)C)c4c(Nc4ccncc4F)n3)ccc12 [Example 178]
10 | 0.3 | CC(C)n1cnc2cc(-c3ccc4c(c3)N([C@H]3C[C@@H](N5CCCCC5)C3)C(=O)C43CCN(C(=O)C(C)(C)CO)CC3)nc(Nc3ccncc3F)c21 [Example 106, 6-(4-((3-fluoropyridin-4-yl)amino)-3-isopropyl-3H-imidazo[4,5-c]pyridin-6-yl)-1′-(3-hydroxy-2,2-dimethylpropanoyl)-1-((1s,3s)-3-(piperidin-1-yl)cyclobutyl)spiro[indoline-3,4′-piperidin]-2-one]
11 | 1 | CC(C)n1cnc2cc(-c3ccc4c(c3)N([C@H]3C[C@@H](N5CCC(C)(C)C5)C3)C(=O)C43CCN(C(=O)C4(C)COC4)CC3)nc(Nc3cc(Cl)ncc3F)c21 [Example 130]
12 | 0.8 | CCn1cnc2cc(-c3ccc4c(c3)N([C@H]3C[C@@H](N5CCCCC5)C3)C(=O)C43CCN(C(=O)C(C)(C)C)CC3)nc(Nc3ccncc3F)c21 [Example 169]
13 | 0.4 | CC[C@H](O)C(=O)N1CCC2(CC1)C(=O)N([C@H]1C[C@@H](N3CCC(C)(C)C3)C1)c1cc(-c3cc4ncn(C(C)C)c4c(Nc4ccncc4F)n3)ccc12 [Example 116]
14 | 1.3 | CC(=O)N1CCC2(CC1)C(=O)N([C@H]1C[C@@H](N3CC4CC4C3)C1)c1cc(-c3cc4ncn(C(C)C)c4c(Nc4ccncc4F)n3)ccc12 (some centres unmarked) [Example 180]
15 | 0.3 | CCn1cnc2cc(-c3ccc4c(c3)N([C@H]3C[C@@H](N5CCCCC5)C3)C(=O)C43CCN(C(=O)C45CC(F)(C4)C5)CC3)nc(Nc3ccncc3F)c21 [Example 151]
16 | 0.5 | CC(C)n1cnc2cc(-c3ccc4c(c3)N([C@H]3C[C@@H](N5CCC(C)(C)C5)C3)C(=O)C43CCN(C(=O)[C@@H](C)O)CC3)nc(Nc3ccncc3F)c21 [Example 120]
17 | 0.07 | CC(C)n1cnc2cc(-c3ccc4c(c3)N([C@H]3C[C@@H](N5CC6CCC(C6)C5)C3)C(=O)C43CCN(C(=O)C4COC4)CC3)nc(Nc3ccncc3F)c21 [Example 124]
18 | 1.6 | CC(=O)N1CCC2(CC1)C(=O)N([C@H]1C[C@@H](N3CCCCC3)C1)c1cc(-c3cc4ncn(C(C)C)c4c(Nc4cc(N(C)C)ncc4F)n3)ccc12 [Example 99]
19 | 0.08 | CC(C)n1cnc2cc(-c3ccc4c(c3)N([C@H]3C[C@@H](N5C[C@H]6CC[C@H]6C5)C3)C(=O)C43CCN(C(=O)C(C)(C)CO)CC3)nc(Nc3ccncc3F)c21 [Example 112]
20 | 1.3 | CCn1cnc2cc(-c3ccc4c(c3)N([C@H]3C[C@@H](N5CCCCC5)C3)C(=O)C43CCN(C(=O)C(C)C)CC3)nc(Nc3ccncc3F)c21 [Example 148]
21 | 0.4 | CC(C)n1cnc2cc(-c3ccc4c(c3)N([C@H]3C[C@@H](N5CCCCC5)C3)C(=O)C43CCN(C(=O)C4(C)COC4)CC3)nc(Nc3ccncc3F)c21 [Example 147]
22 | 0.3 | COC1(C(=O)N2CCC3(CC2)C(=O)N([C@H]2C[C@@H](N4CCCCC4)C2)c2cc(-c4cc5ncn(C(C)C)c5c(Nc5ccncc5F)n4)ccc23)CCC1 [Example 107]
23 | 0.6 | CC(C)n1cnc2cc(-c3ccc4c(c3)N([C@H]3C[C@@H](N5CCC(C)(C)C5)C3)C(=O)C4(C)C)nc(Nc3ccncc3F)c21 [Example 189]
24 | 0.4 | CC(=O)N1CCC2(CC1)C(=O)N([C@H]1C[C@@H](N3CCC(C)(C)C3)C1)c1cc(-c3cc4ncn(C(C)C)c4c(Nc4cc(C)ncc4F)n3)ccc12 [Example 173]

Row | Compound | IC50 [nM]
25 | CC(=O)N1CCC2(CC1)C(=O)N([C@H]1C[C@@H](N3C4CCCC3CC4)C1)c1cc(-c3cc4ncn(C(C)C)c4c(Nc4ccncc4F)n3)ccc12 [Example 186] | 0.3
26 | CC(C)n1cnc2cc(-c3ccc4c(c3)N([C@H]3C[C@@H](N5CC(C)(C)C5)C3)C(=O)C43CCN(C4COC4)CC3)nc(Nc3ccncc3F)c21 [Example 176] | 0.8

Same assay, conditions: recombinant human HPK1 kinase domain 0.15 nM, 10 μM ATP, 1 μM STK S1 peptide; geometric mean of multiple experiments

Row | IC50 [nM] | Compound
27 | 0.3 | CC(C)n1cnc2cc(-c3ccc4c(c3)N([C@H]3C[C@@H](N5CCC(C)(C)C5)C3)C(=O)C43CCN(C(=O)C4(C)CCOC4)CC3)nc(Nc3ccncc3F)c21 (some centres unmarked) [Example 18]
28 | 0.7 | CC(C)n1cnc2cc(-c3ccc4c(c3)N([C@H]3C[C@@H](N5CCCCC5)C3)C(=O)C4(C)C)nc(Nc3c(F)cncc3F)c21 [Example 65]
29 | 0.8 | CC(C)n1cnc2cc(-c3ccc4c(c3)N([C@H]3C[C@@H](N5CCC6(CC6)C5)C3)C(=O)C4(C)C)nc(Nc3ccncc3F)c21 [Example 56]
30 | 0.9 | CC(C)n1cnc2cc(-c3ccc4c(c3)N([C@H]3C[C@@H](N5CCCCC5)C3)C(=O)C4(C)O)nc(Nc3ccncc3F)c21 (some centres unmarked) [Example 55, 6-(4-((3-fluoropyridin-4-yl)amino)-3-isopropyl-3H-imidazo[4,5-c]pyridin-6-yl)-3-hydroxy-3-methyl-1-((1s,3s)-3-(piperidin-1-yl)cyclobutyl)indolin-2-one]
31 | 0.7 | CC(C)n1cnc2cc(-c3ccc4c(c3)N([C@H]3C[C@@H](N5CC6CCC5CC6)C3)C(=O)C4(C)C)nc(Nc3ccncc3F)c21 [Example 58]
32 | 8.2 | CNC(=O)c1cc(Nc2nc(-c3ccc4c(c3)N([C@H]3C[C@@H](N5CCCCC5)C3)C(=O)C4(C)C)cc3ncn(C(C)C)c23)c(F)cn1 [Example 88]
33 | 0.5 | CC(C)n1cnc2cc(-c3ccc4c(c3)N([C@H]3C[C@@H](N5CCCCC5)C3)C(=O)C43CCN(C(=O)C4(C)CC4)CC3)nc(Nc3ccncc3F)c21 [Example 27]
34 | 0.5 | CC(C)n1cnc2cc(-c3ccc4c(c3)N([C@H]3C[C@@H](N5CCCCC5)C3)C(=O)C43CCN(C(=O)[C@@H](C)O)CC3)nc(Nc3ccncc3F)c21 [Example 2]
35 | 0.4 | CC(C)n1cnc2cc(-c3ccc4c(c3)N([C@H]3C[C@@H](N5CCC(C)(C)C5)C3)C(=O)C43CCN(C(=O)CC4COC4)CC3)nc(Nc3ccncc3F)c21 [Example 21]
36 | 1.3 | CC(C)n1cnc2cc(-c3ccc4c(c3)N([C@H]3C[C@@H](NCC(C)(C)F)C3)C(=O)C4(C)C)nc(Nc3ccncc3F)c21 [Example 64]
37 | 1.6 | CC(C)n1cnc2cc(-c3ccc4c(c3)N([C@H]3C[C@@H](NCC(C)(C)O)C3)C(=O)C4(C)C)nc(Nc3ccncc3F)c21 [Example 52, 6-(4-((3-fluoropyridin-4-yl)amino)-3-isopropyl-3H-imidazo[4,5-c]pyridin-6-yl)-1-((1s,3s)-3-((2-hydroxy-2-methylpropyl)amino)cyclobutyl)-3,3-dimethylindolin-2-one]
38 | 0.7 | CC[C@H](C)n1cnc2cc(-c3ccc4c(c3)N([C@H]3C[C@@H](N5CCCCC5)C3)C(=O)C43CCN(C(C)=O)CC3)nc(Nc3ccncc3F)c21 [Example 72]
39 | 0.1 | CC(C)n1cnc2cc(-c3ccc4c(c3)N([C@H]3C[C@@H](N5CCC(C)(C)C5)C3)C(=O)C43CCN(C(=O)C4(C)CCO4)CC3)nc(Nc3ccncc3F)c21 (some centres unmarked) [Example 12]
40 | 0.3 | CC(C)n1cnc2cc(-c3ccc4c(c3)N([C@H]3C[C@@H](N5CCCC6(CC6)C5)C3)C(=O)C43CCN(C(=O)[C@@H](C)O)CC3)nc(Nc3ccncc3F)c21 [Example 36]

Row | Compound | IC50 [nM]
41 | CC(C)n1cnc2cc(-c3ccc4c(c3)N([C@H]3C[C@@H](N5CCCC(C)(C)C5)C3)C(=O)C43CCN(C4COC4)CC3)nc(Nc3ccncc3F)c21 [Example 45] | 0.2
42 | CC(C)n1cnc2cc(-c3ccc4c(c3)N([C@H]3C[C@@H](N5CCC(C)(C)C5)C3)C(=O)C43CCN(C(=O)C4CCO4)CC3)nc(Nc3ccncc3F)c21 (single isomer, unassigned) [Example 78A, 1-((1s,3s)-3-(3,3-dimethylpyrrolidin-1-yl)cyclobutyl)-6-(4-((3-fluoropyridin-4-yl)amino)-3-isopropyl-3H-imidazo[4,5-c]pyridin-6-yl)-1′-(oxetane-2-carbonyl)spiro[indoline-3,4′-piperidin]-2-one] | 0.3
43 | CC(C)n1cnc2cc(-c3ccc4c(c3)N([C@H]3C[C@@H](N5CC6CC(C6)C5)C3)C(=O)C43CCN(C(=O)C4(C)COC4)CC3)nc(Nc3ccncc3F)c21 [Example 7] | 0.2
44 | CC[C@H](C)n1cnc2cc(-c3ccc4c(c3)N([C@H]3C[C@@H](N5CCCCC5)C3)C(=O)C43CCN(C4COC4)CC3)nc(Nc3ccncc3F)c21 [Example 89] | 0.5
